The target of test [1] is T1, AgOAR45B (Anopheles gambiae, UniProt F5HJT6). It counts as cell-based. To be noted: for IC50: read-out: IC 50 (antagonist), in the presence of 1 μM octopamine. How it is done:
GloResponse™CRE-luc2P HEK293 reporter cell line (Promega) were maintained as adherent culture at 37°C, 5% CO2 in DMEM (Invitrogen) supplemented with 10% fetal calf serum (Atlanta), and […] hygromycin B. Transfection of cells was carried out using the Amaxa Nucleofector kit per the manufacturer’s instructions. […] Stable lines were created by applying […] G418 for three weeks. Stable clones of AgOAR45B expressing HEK293 reporter cells were created through two rounds of limiting dilution cloning.
Intracellular cAMP increase was monitored through a CRE-luc reporter construct in HEK293 cells (Promega). Stable cell lines were plated at a density of 4×10^4 cells per well in white 96-well assay plates (Corning, Cat. #3917). Cells were immediately treated with the various compounds, and returned to the incubator for four hours before being assayed. cAMP was quantified through luciferase production using the Dual-Glo luciferase assay kit (Promega) following the manufacturer’s instructions. Luciferase units were normalized to the cell number using the internal Rluc construct in the pF9A expression plasmid.

For test [2], the target named is T1, AgOAR45B. Kind of test: 3H-Yohimbine competition radioligand binding assay on membranes. As to conditions: competition with 16 nM 3H-Yohimbine. As to the method: Cells in T75 flasks were washed with 10 ml of PBS, removed by scraping, centrifuged at 500 g, and then resuspended in 5 ml of lysis buffer, 50 mM Tris-Cl pH 7.4. Cells were incubated on ice for 10 min and homogenized with a Dounce homogenizer with 30 strokes. The homogenate and 5 ml wash with lysis buffer were then centrifuged at 23,000 g for 30 min at 4°C to pellet crude membranes. The resulting pellet was re-suspended in 50 mM Tris-Cl pH 7.4, 5 mM MgCl2, 0.5 mM EDTA pH 7.4 and quantified by micro BCA assay (Thermo).
Radioligand binding assays were carried out using ^3H-Yohimbine to determine binding affinity of the octopamine receptor with different compounds. Isolated membranes, 30 μg per well, were incubated in the presence of 16 nM ^3H-Yohimbine (American Radiolabeled Chemicals) in binding buffer, and various concentrations of compounds. The final reaction volume was […] per well in a 96-well assay plate. […] clonidine was used to determine non-specific binding in each experiment. After a two-hour incubation, membranes were collected and washed on filter mats, pretreated with 0.3% polyethylenimine (Sigma) using a Brandel 96-well harvester and counted in a Perkin Elmer Microbeta counter.

Test [3] deals with AgOAR45A (Anopheles gambiae, UniProt Q7PRZ8, DEL426-427). Kind of test: cell-based.
[4] abbreviates: read-out: EC 50 (agonist), AgOAR45B, HEK293-CRE-Luc cells.

Counter-ions that a name gives are not always drawn. Like-named read-outs stand apart in the source and are kept apart here. Where only a bound is given, the exact number is not on record here.

T1 sequence (F5HJT6 entry or part of it): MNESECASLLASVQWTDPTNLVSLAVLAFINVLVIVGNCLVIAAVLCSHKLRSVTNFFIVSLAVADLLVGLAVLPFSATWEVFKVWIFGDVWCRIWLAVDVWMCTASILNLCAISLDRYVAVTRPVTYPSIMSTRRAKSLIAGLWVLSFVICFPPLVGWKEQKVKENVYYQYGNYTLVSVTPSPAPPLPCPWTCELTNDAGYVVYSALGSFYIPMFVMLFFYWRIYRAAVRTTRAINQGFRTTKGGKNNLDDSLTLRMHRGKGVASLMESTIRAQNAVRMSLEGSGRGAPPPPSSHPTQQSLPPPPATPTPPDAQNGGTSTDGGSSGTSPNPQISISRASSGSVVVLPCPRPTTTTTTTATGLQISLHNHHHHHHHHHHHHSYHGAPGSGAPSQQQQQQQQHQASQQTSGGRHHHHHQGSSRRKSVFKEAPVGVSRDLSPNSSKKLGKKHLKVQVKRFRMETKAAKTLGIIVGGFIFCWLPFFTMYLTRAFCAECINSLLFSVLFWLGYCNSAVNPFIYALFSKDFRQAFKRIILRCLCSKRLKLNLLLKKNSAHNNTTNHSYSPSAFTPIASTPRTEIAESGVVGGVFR
AgOAR45A, sequence (Q7PRZ8 entry or part of it DEL426-427): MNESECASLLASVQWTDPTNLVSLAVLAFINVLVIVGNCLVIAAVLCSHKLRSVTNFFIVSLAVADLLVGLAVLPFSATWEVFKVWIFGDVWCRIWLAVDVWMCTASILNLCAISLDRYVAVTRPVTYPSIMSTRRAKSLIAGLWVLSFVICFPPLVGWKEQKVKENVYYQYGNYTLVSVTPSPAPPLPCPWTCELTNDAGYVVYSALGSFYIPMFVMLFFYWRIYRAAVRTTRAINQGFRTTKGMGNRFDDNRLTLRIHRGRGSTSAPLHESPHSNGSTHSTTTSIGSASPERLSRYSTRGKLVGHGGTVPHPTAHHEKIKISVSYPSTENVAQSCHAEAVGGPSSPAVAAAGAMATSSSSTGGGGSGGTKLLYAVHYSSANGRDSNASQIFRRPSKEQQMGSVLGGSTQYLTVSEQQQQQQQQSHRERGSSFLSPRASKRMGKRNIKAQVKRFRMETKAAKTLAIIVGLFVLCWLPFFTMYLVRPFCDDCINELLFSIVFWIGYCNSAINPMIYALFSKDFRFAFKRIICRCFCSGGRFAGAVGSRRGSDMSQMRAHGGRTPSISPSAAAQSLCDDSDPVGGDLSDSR

Usually Ki stands for the dissociation constant of the complex between target and ligand, obtained from inhibition or displacement. The low end stands for higher affinity, the high end for lower affinity. As for `NCC(O)c1ccc(O)cc1` (racemic) [Octopamine, DL-octopamine], the EC50 was found to be 17 nM in test [1] (Table 2, AgOAR45B reporter assay); 17 nM in test [1] (setting [4]); 53 nM in test [3]. Also, the Ki in test [2] was 7700 nM.
`CN(C)CCCN1c2ccccc2Sc2ccc(Cl)cc21` [Chlorpromazine, chlorpromazine]: the IC50 in test [1] (AgOAR45B) stood at 9900 nM.
In the case of `Clc1cccc(Cl)c1N=C1NCCN1` [Clonidine, clonidine], the results for the EC50 in test [1] (setting [4]) and in test [3] were 0.24 nM and 2 nM, respectively.
For `NCCc1ccc(O)c(O)c1` [Dopamine, dopamine], in that order: over 50000 nM and over 50000 nM.
As for `CCN(CC)CCNC(=O)c1cc(Cl)c(N)cc1OC` [Metaclopramide, Metoclopramide hydrochloride], the IC50 in test [1] (AgOAR45B) is over 50000 nM.
In the case of `c1ccc2c(CC3=NCCN3)cccc2c1` [Naphazoline, naphazoline], the EC50 in test [1] (setting [4]) is 0.23 nM; in test [3] it was 2.2 nM.
In the case of `Cc1ccc(N(CC2=NCCN2)c2cccc(O)c2)cc1` [Phentolamine, phentolamine], the EC50 came out at 5.8 nM in test [1] (setting [4]) and 10 nM in test [3].
As for `CC(CN1c2ccccc2Sc2ccccc21)N(C)C` (stereo not drawn) [Promethazine, promethazine], the IC50 in test [1] (AgOAR45B) is 2000 nM.
As for `NCCc1c[nH]c2ccc(O)cc12` [Serotonin, serotonin], the EC50 in test [1] (setting [4]) and in test [3] was over 50000 nM in each case.
Consider `c1ccc(CC2=NCCN2)cc1` [Tolazoline, tolazoline], for which the EC50 was 5 nM in test [1] (setting [4]) and 280 nM in test [3].
For `NCCc1ccc(O)cc1` [Tyramine, tyramine], the EC50 turned out to be 840 nM in test [1] (setting [4]) and 4600 nM in test [3].
